Data taken from the supplement of paper PMC9938120.

Legend:
Experiment in all cases: drug sensitivity score (DSS3, normalised partial AUC of % inhibition dose-response) (DSS (score)); higher = more sensitive (stronger inhibition of viability); extreme values may be limits of the assay
[1] = system: FMOC04 (patient-derived high-grade serous ovarian cancer cells); conditions: 72 h; library: FO5A; assay format: 2D, 384-well, CellTiter-Glo
In short: (§1)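 On 384-well flat clear-bottom plates carrying compounds at five concentrations across a 10,000-fold range, patient-derived ovarian cancer cells below passage 10 were incubated for 72 h at 37 °C with 5% CO2. CellTiter-Glo readout of viability was processed in Breeze. A higher drug sensitivity score, defined as the partial area under the percent-inhibition dose-response curve divided by the log of the upper asymptote, means greater sensitivity.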

[2] = system: FMOC14 (patient-derived high-grade serous ovarian cancer cells); conditions: 72 h; library: FO5A; assay format: 2D, 384-well, CellTiter-Glo
In short: as §1

[3] = system: FMOC24 (patient-derived high-grade serous ovarian cancer cells); conditions: 72 h; library: FO5A; assay format: 2D, 384-well, CellTiter-Glo
In short: as §1

[4] = system: FMOC25_1 (patient-derived low-grade serous ovarian cancer cells); conditions: 72 h; library: FO4B; assay format: 2D, 384-well, CellTiter-Glo
In short: as §1

[5] = system: FMOC28 (patient-derived low-grade serous ovarian cancer cells); conditions: 72 h; library: FO5A; assay format: 2D, 384-well, CellTiter-Glo
In short: as §1

[6] = system: FMOC02_2 (patient-derived low-grade serous ovarian cancer cells); conditions: 72 h; library: FO5A; assay format: 2D, 384-well, CellTiter-Glo
In short: as §1

[7] = system: FMOC06 (patient-derived mucinous ovarian cancer cells); conditions: 72 h; library: FO5A; assay format: 2D, 384-well, CellTiter-Glo
In short: as §1

[8] = system: FMOC25_2 (patient-derived low-grade serous ovarian cancer cells); conditions: 72 h; library: FO5A; assay format: 2D, 384-well, CellTiter-Glo
In short: as §1

[9] = system: FMOC27 (patient-derived low-grade serous ovarian cancer cells); conditions: 72 h; library: FO5A; assay format: 2D, 384-well, CellTiter-Glo
In short: as §1

[10] = system: FMOC02_3 (patient-derived low-grade serous ovarian cancer cells); conditions: 72 h; library: FO5A; assay format: 2D, 384-well, CellTiter-Glo
In short: as §1

[11] = system: FMOC22 (patient-derived mucinous ovarian cancer cells); conditions: 72 h; library: FO5A; assay format: 2D, 384-well, CellTiter-Glo
In short: as §1

[12] = system: FMOC09 (patient-derived high-grade serous ovarian cancer cells); conditions: 72 h; library: FO5A; assay format: 2D, 384-well, CellTiter-Glo
In short: as §1

[13] = system: FMOC02_1 (patient-derived low-grade serous ovarian cancer cells); conditions: 72 h; library: FO5A; assay format: 2D, 384-well, CellTiter-Glo
In short: as §1

[14] = system: FMOC03 (patient-derived mucinous ovarian cancer cells); conditions: 72 h; library: FO5A; assay format: 2D, 384-well, CellTiter-Glo
In short: as §1

[15] = system: FMOC11 (patient-derived high-grade serous ovarian cancer cells); conditions: 72 h; library: FO5A; assay format: 2D, 384-well, CellTiter-Glo
In short: as §1

[16] = system: FMOC17 (patient-derived low-grade serous ovarian cancer cells); conditions: 72 h; library: FO5A; assay format: 2D, 384-well, CellTiter-Glo
In short: as §1

Row | Compound | drug sensitivity score [1] | drug sensitivity score [2] | drug sensitivity score [3] | drug sensitivity score [4] | drug sensitivity score [5] | drug sensitivity score [6] | drug sensitivity score [7] | drug sensitivity score [8] | drug sensitivity score [9] | drug sensitivity score [10] | drug sensitivity score [11] | drug sensitivity score [12] | drug sensitivity score [13] | drug sensitivity score [14] | drug sensitivity score [15] | drug sensitivity score [16]
1 | CCS(=O)(=O)N1CC(CC#N)(n2cc(-c3ncnc4[nH]ccc34)cn2)C1 [Baricitinib] | 0 | 0 | 0.05 | 0 | 0 | 0 | 0 | 0 | 0 | 0 | 0 | 0 | 0 | 0 | 0 | 0
2 | N#CC(c1ccnc(OCc2ccc(CN3CCOCC3)cc2)n1)c1nc2ccccc2s1 (stereo unspecified) [Bentamapimod] | 0.4 | 2.3 | 5.8 | 0.7 | 3.8 | 0.9 | 2 | 1 | 0 | 1.7 | 2 | 2.9 | 1.1 | 2.8 | 3.2 | 4.2
3 | C=C(c1ccc(C(=O)O)cc1)c1cc2c(cc1C)C(C)(C)CCC2(C)C [Bexarotene] | 0 | 0 | 0.9 | 0.3 | 5.3 | 6 | 0 | 0 | 1.5 | 4.3 | 1.1 | 1.8 | 0 | 1.7 | 1.2 | 0.1
4 | CC(O)(CS(=O)(=O)c1ccc(F)cc1)C(=O)Nc1ccc(C#N)c(C(F)(F)F)c1 (stereo unspecified) [Bicalutamide] | 0 | 0 | 0.85 | 0 | 0 | 0 | 1.1 | 0 | 0 | 0 | 0 | 0 | 0.1 | 0 | 0 | 0.9
5 | CCNC(=O)CCC/C=C\C[C@@H]1[C@@H](/C=C/[C@@H](O)CCc2ccccc2)[C@H](O)C[C@@H]1O [Bimatoprost] | 0 | 0 | 0 | 0 | 0 | 0 | 0 | 0 | 0 | 0 | 0 | 0 | 0 | 0 | 0 | 0
6 | Cn1cnc2c(F)c(Nc3ccc(Br)cc3F)c(C(=O)NOCCO)cc21 [Binimetinib] | 0 | 0 | 0 | 6.6 | 1.6 | 7.1 | 7.6 | 3.2 | 2.2 | 7.1 | 3.6 | 4.2 | 5.5 | 4.8 | 0 | 6
7 | Cc1c(N)nc([C@H](CC(N)=O)NC[C@H](N)C(N)=O)nc1C(=O)N[C@H](C(=O)N[C@H](C)[C@@H](O)[C@H](C)C(=O)N[C@H](C(=O)NCCc1nc(-c2nc(C(=O)NCCC[S+](C)C)cs2)cs1)[C@@H](C)O)[C@@H](OC1OC(CO)C(O)C(O)C1OC1OC(CO)C(O)C(OC(N)=O)C1O)c1cnc[nH]1 (stereo partly specified) [Bleomycin] | 0 | 0.1 | 5.65 | 9 | 2.9 | 4.3 | 3.1 | 3.2 | 2.4 | 8.8 | 0.8 | 3.2 | 3.1 | 0.7 | 3.4 | 3.4
8 | Cc1cc2c(F)c(Oc3ncnn4cc(OC[C@@H](C)O)c(C)c34)ccc2[nH]1 [Brivanib] | 0 | 0 | 0 | 0 | 0 | 0 | 0 | 0 | 0 | 0 | 0 | 0 | 0 | 0 | 0 | 0
9 | CCC/C=C/C=C/C(=O)O[C@H]1/C(=C/C(=O)OC)C[C@H]2C[C@H]([C@@H](C)O)OC(=O)C[C@H](O)C[C@@H]3C[C@H](OC(C)=O)C(C)(C)[C@](O)(C[C@@H]4C/C(=C/C(=O)OC)C[C@H](/C=C/C(C)(C)[C@]1(O)O2)O4)O3 [Bryostatin 1] | 0.7 | 0 | 3.45 | 6.6 | 0.7 | 1.5 | 6.8 | 7.1 | 0.2 | 4.1 | 2.6 | 0.6 | 6.7 | 0 | 2.4 | 0
10 | O=C(O)CCCCC(CCSCc1ccccc1)SCc1ccccc1 (stereo unspecified) [CPI-613] | 0 | 0 | 0 | 0 | 2.8 | 0 | 0 | 0 | 0 | 0 | 0 | 0 | 0 | 0 | 0 | 2.5
11 | COc1cc2nccc(Oc3ccc(NC(=O)C4(C(=O)Nc5ccc(F)cc5)CC4)cc3)c2cc1OC [Cabozantinib] | 0 | 0 | 4.45 | 0 | 0 | 0.1 | 0 | 0 | 0.8 | 0 | 0 | 0 | 1 | 0 | 0 | 0
